Assay: Experimental and clinical tests of potassium bioavailability
Settings: in presence of xylitol and/or citric acid
Source text: As compared to previous cardioplegic solutions the preparation according to the invention has a higher potassium concentration. […] By increasing thus the initial content of potassium in the cardioplegic solution, the concentration necessary to achieve the cardioplegic effect is guaranteed.

[Cl-].[K+] [Potassium ions, Potassium chloride]
bioavailability of Potassium ions: reduced bioavailability
